From patent US9474749B2 (priority 2004, dated 2016)

Experiments:
[1] = system: Mytilus edulis pedal ganglia; experiment: Ganglionic morphine levels after injection into the foot of intact animals; details: one hour after injection into the foot
Procedure: For in vivo precursor injection experiments, the animal's foot was injected with either reticuline or L-DOPA (0.1 and 1 μg/injection, respectively). Chemicals were injected by BD 1 cc syringes with 26 G needles. Each needle was inserted into that base of the foot just above the pedal ganglia.
For in vivo treatments, the animal's foot (20 animals per treatment) was injected with tyrosine (10^−5 M), tyramine (10^−5 M), or saline. Other animals were exposed to the enzyme inhibitors AMPT or quinidine alone or immediately following the respective foot injection. […] All chemicals were purchased from Sigma (St. Louis, Mo.).

[2] = molecular target: mu3 opiate receptor (Mytilus edulis, UniProt A0A8S3SM58); experiment: Displacement of 3H-dihydromorphine, pedal ganglia membrane suspension; type: binding
Procedure: An additional 100 excised pedal ganglia and the human monocytes were separately washed and homogenized in 50 volumes of 0.32 M sucrose, pH 7.4, at 4° C. using a Brinkmann polytron (30 seconds, setting no. 5). The crude homogenate was centrifuged at 900×g for 10 minutes at 4° C., and the supernatant was reserved on ice. The whitish crude pellet was resuspended by homogenization (15 seconds, setting no. 5) in 30 volumes of 0.32 M sucrose/Tris-HCl buffer, pH 7.4, and centrifuged at 900×g for 10 minutes. The extraction procedure was repeated one more time, and the combined supernatants were centrifuged at 900×g for 10 minutes. The resulting supernatants (S1′) were used immediately. […] The P2 pellet was then re-suspended with a Dounce hand-held homogenizer (10 strokes) in 100 volumes of buffer. Binding analysis was then performed on the cell membrane suspensions.
Aliquots of membrane suspension (0.2 mL, 0.12 mg of membrane protein) were incubated in triplicate at 22° C. for 40 minutes with the appropriate radiolabeled ligand in the presence of dextrorphan (10 mM) or levorphanol (10 mM) in 10 mM Tris-HCl buffer, pH 7.4, containing 0.1% BSA and 150 mM KCl. […] The filters were rapidly washed with 2.5 mL aliquots of the incubation buffer (4° C.), containing 2% polyethylene glycol 6000 (Baker). […] Protein concentration was determined in membrane suspensions (prepared in the absence of BSA).

[3] = system: Mytilus edulis pedal ganglia; experiment: Endogenous morphine levels in excised pedal ganglia incubated in vitro (HPLC, RIA); type: cell-based
[4] = system: NCI-H295R cells; experiment: Morphine production by NCI-H295R cells (RIA); type: cell-based, human; details: one half million cells, 100 ng of reticuline, 24 hours; control about 9.6±3.5
Text: Human cells (NCI-H295R) were adapted from the NCI-H295 pluripotent adrenocortical carcinoma cell line (ATCC CRL-10296), which is from a carcinoma of the adrenal cortex. The original cells were adapted to a culture medium that decreased the population doubling time from 5 days to 2 days. While the original cells grew in suspension, the adapted cells were selected to grow in a monolayer. These cells retained the ability to produce adrenal androgens and were responsive to angiotensin II and potassium ions. To propagate these cells, the culture medium was a 1:1 mixture of Dulbecco's modified Eagle's medium and Ham's F12 medium containing 15 mM HEPES, 0.00625 mg/mL insulin, 0.00625 mg/mL transferrin, 6.25 ng/mL selenium, 1.25 mg/mL bovine serum albumin, and 0.00535 mg/mL linoleic acid, 97.5%; Nu-Serum I, 2.5%. See, e.g., Rainey et al., Mol. Cell. Endocrinol., 100:45-50 (1994); Gazdar et al., Cancer Res., 50:5488-5496 (1990); and Bird et al., Endocrinology, 133:1555-1561 (1993)).
The cells were subcultured in 6 well cell culture cluster (Corning Inc.) 24 hours before the experiment. The amount of cells was determined by Microscope (Nickon inc). Various amounts of reticuline were added to the cells, and the cells were cultured with an NAPCO incubator. The incubation was terminated after 24 hours by adding 10 NHCl.

[5] = system: human white blood cells / PMNs; experiment: Morphine production by human WBC and PMNs (HPLC, RIA); type: cell-based
[6] = system: pedal ganglia; experiment: NO release from excised pedal ganglia (NO-selective microprobe); type: cell-based, Mytilus edulis
Procedure: For the nitric oxide assay, ten pedal ganglia (per determination) dissected from M. edulis were bathed in 1 mL sterile phosphate buffered saline (PBS). […] For the opiate receptor antagonist experiments, ganglia were pretreated with naloxone for 10 minutes prior to reticuline addition. NO release was monitored with an NO-selective microprobe manufactured by World Precision Instruments (Sarasota, Fla.). The sensor was positioned approximately 100 μm above the respective tissue surface. […] The NO detection system was calibrated daily. The probe was allowed to equilibrate for 10 minutes in the incubation medium free of tissue before being transferred to vials containing the ganglia for another 5 minutes. Manipulation and handling of the ganglia was only performed with glass instruments. Data was acquired using the Apollo-4000 free radical analyzer (World Precision Instruments, Sarasota, Fla.). The experimental values were then transferred to Sigma-Plot and -Stat (Jandel, Calif.) for graphic representation and evaluation.

[7] = molecular target: T1, mu3 opiate receptor (Homo sapiens, UniProt P35372); experiment: biochemical; type: binding; details: read-out: Monocytes IC50, displacement of 3H-dihydromorphine; mean +/− S.E.M., three experiments
T1 construct: An additional 100 excised pedal ganglia and the human monocytes were separately washed and homogenized; host or cells: human monocytes
Procedure: For the nitric oxide assay, ten pedal ganglia (per determination) dissected from M. edulis were bathed in 1 mL sterile phosphate buffered saline (PBS). […] NO release was monitored with an NO-selective microprobe manufactured by World Precision Instruments (Sarasota, Fla.). The sensor was positioned approximately 100 μm above the respective tissue surface. […] The NO detection system was calibrated daily. The probe was allowed to equilibrate for 10 minutes in the incubation medium free of tissue before being transferred to vials containing the ganglia for another 5 minutes. Manipulation and handling of the ganglia was only performed with glass instruments. Data was acquired using the Apollo-4000 free radical analyzer (World Precision Instruments, Sarasota, Fla.). The experimental values were then transferred to Sigma-Plot and -Stat (Jandel, Calif.) for graphic representation and evaluation.
An additional 100 excised pedal ganglia and the human monocytes were separately washed and homogenized in 50 volumes of 0.32 M sucrose, pH 7.4, at 4° C. using a Brinkmann polytron (30 seconds, setting no. 5). The crude homogenate was centrifuged at 900×g for 10 minutes at 4° C., and the supernatant was reserved on ice. The whitish crude pellet was resuspended by homogenization (15 seconds, setting no. 5) in 30 volumes of 0.32 M sucrose/Tris-HCl buffer, pH 7.4, and centrifuged at 900×g for 10 minutes. The extraction procedure was repeated one more time, and the combined supernatants were centrifuged at 900×g for 10 minutes. The resulting supernatants (S1′) were used immediately. […] The P2 pellet was then re-suspended with a Dounce hand-held homogenizer (10 strokes) in 100 volumes of buffer. […]
Aliquots of membrane suspension (0.2 mL, 0.12 mg of membrane protein) were incubated in triplicate at 22° C. for 40 minutes with the appropriate radiolabeled ligand in the presence of dextrorphan (10 mM) or levorphanol (10 mM) in 10 mM Tris-HCl buffer, pH 7.4, containing 0.1% BSA and 150 mM KCl. […] Protein concentration was determined in membrane suspensions (prepared in the absence of BSA).

[8] = system: SH-SY5Y cells; experiment: M6G-induced NO release from SH-SY5Y cells; type: cell-based, human; details: 1 hour pre-treatment, 1 μM M6G
Procedure: The production of NO in SH-SY5Y cells was detected using the Apollo 4000 Free Radical Analyzer (World Precision Instruments). SH-SY5Y cells were trypsinized and cultured in a 6-well plate for 48 hours. An L-shaped amperometric NO-specific probe was connected to the Apollo Analyzer and calibrated using a SNAP+CuCl2 solution, which releases calculable amounts of NO. […] At the end of the treatment time-point, the media was removed and replaced with PBS warmed in a 37° C. bath, which is non-reactive with the probe. The probe was inserted about 1.5 mm above the cells and allowed to equilibrate for 5 minutes. […] The probe was monitored in real-time for the production of NO “spikes.” NO data was recorded using Free Radical Analyzer (World Precision Instruments). Cells were then discarded.

[9] = system: mu3 opiate receptor; details: 10^−6 M CTOP 10 minutes prior
Procedure: In addition, the cells were either incubated with or without 10^−6 M CTOP 10 minutes prior to adding M6G.

[10] = system: human saphenous veins; experiment: NO release from human saphenous veins; details: 10^−6 M CTOP 10 minutes before morphine

mu3 opiate receptor (Mytilus edulis, UniProt A0A8S3SM58), sequence (A0A8S3SM58 1-388): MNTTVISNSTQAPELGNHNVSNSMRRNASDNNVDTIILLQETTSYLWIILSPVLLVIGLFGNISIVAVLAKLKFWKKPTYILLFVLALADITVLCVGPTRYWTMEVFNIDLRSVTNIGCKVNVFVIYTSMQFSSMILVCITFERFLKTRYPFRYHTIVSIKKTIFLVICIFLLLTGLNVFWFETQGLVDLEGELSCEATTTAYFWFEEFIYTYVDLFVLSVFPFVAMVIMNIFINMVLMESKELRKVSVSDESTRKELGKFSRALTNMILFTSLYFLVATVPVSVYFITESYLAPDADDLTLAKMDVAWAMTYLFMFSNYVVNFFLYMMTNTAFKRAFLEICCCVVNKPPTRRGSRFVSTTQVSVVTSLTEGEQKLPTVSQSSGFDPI
T1 sequence (P35372 1-314 isoform P35372-14): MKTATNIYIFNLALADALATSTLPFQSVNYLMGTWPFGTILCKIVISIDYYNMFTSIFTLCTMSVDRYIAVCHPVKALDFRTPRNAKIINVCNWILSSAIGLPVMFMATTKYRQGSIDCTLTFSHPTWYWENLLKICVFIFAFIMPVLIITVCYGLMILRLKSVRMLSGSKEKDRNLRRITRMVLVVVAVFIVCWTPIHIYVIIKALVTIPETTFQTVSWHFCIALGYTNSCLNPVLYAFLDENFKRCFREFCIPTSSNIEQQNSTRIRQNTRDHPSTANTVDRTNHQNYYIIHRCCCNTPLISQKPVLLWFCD

In the case of `COc1ccc(C[C@H]2c3cc(O)c(OC)cc3CCN2C)cc1O` [Reticuline, reticuline], the “pedal ganglionic morphine levels after injection” value [1] is reported as “significantly increased pedal ganglionic morphine levels”, the “affinity for the mu3 opiate receptor” value [2] is reported as “does not exhibit an affinity” and the IC50 ([2]; read-out: Pedal Ganglia IC50, displacement of 3H-dihydromorphine, mean +/− S.E.M., three experiments) is reported as over 1000 nM. For the same compound, the “endogenous morphine level in ganglia (HPLC)” value ([3]; 50 ng of reticuline, 1 hour, control 1.43±0.41) was 6.7±0.7 ng/mg tissue wet weight, the “morphine production in mantle tissues” value ([3]; 50 ng of reticuline, mantle tissues) was “did not produce detectable morphine” and the “morphine per mg ganglion” value ([3]; 100 ng of reticuline) was “about 5.0±0.47 ng morphine per mg ganglion”. For the same compound, the “ganglionic morphine level (RIA)” value ([3]; 100 ng of reticuline, one hour, control 1.33±0.61) was “about 14.53±4.6 ng/mg”, the “ganglionic morphine level (HPLC, FIG. 1 legend)” value ([3]; 0.5 μg of reticuline, 1 hour) was 5 ng/mg morphine tissue wet weight and the “ganglionic morphine levels after exposure” value ([3]; 10^−6 M (FIG. 20)) was “significantly enhanced morphine levels”. For the same compound, the “ganglionic morphine levels versus control” value ([3]; 50 and 100 ng, 60 minutes, in vitro) was “significantly higher”, the “morphine produced by cells” value [4] was “about 28±5.4 ng” and the “WBC morphine concentrations versus untreated cells” value ([5]; P<0.001) was “significantly increased WBC morphine concentrations”. The “Morphine levels in media after the cells were removed” value ([5]; PMNs 3×10^6 cells, THP 100 μg, reticuline 50 μg, L-DOPA 100 μg, L-tyrosine 100 μg) was 2.112 ± 0.33, the “morphine concentrations in WBC” value ([5]; one-hour treatment, control 12.33±5.64) was 136.04±8.71 pg/million cells and the “NO Peak Level” value ([6]; ligand 10^−7 M) was 17.6 ± 3.8 nM. For the same compound, the “NO Peak Time” value ([6]; ligand 10^−7 M) was 9.2 ± 1.5 min, the “delay before ganglionic NO release” value ([6]; reticuline 10^−7 M) was “three-minute delay” and the “duration of ganglionic NO release” value ([6]; reticuline 10^−7 M, morphine 10^−6 M) was 17 min. It also gave an IC50 [7] of over 1000 nM.
For Aβ1-42: β-amyloid peptide (Aβ) 1-42, the “M6G-induced NO release after Aβ1-42 pre-treatment” value [8] was “dose-dependent decrease in NO release”.
In the case of CTOP, the “effect of CTOP on M6G-induced mu3 expression” value [9] is reported as “blocked by CTOP pre-treatment” and the “morphine-induced NO release after CTOP pre-treatment” value [10] is reported as “no NO release was detected”.
